Data from US10711007B2, “Selective inhibitors of protein arginine methyltransferase 5 (PRMT5)” (Prelude Therapeutics, Incorporated, priority 2018, dated 2020).
Where a name gives a salt, the structure may show the parent alone.

Biological target: PRMT5/MEP50 complex (Homo sapiens (Human), UniProt O14744)
Assay: Biochemical assay: PRMT5/MEP50 methylation of histone H4 based AcH4-23, SPA readout
Settings: PRMT5/MEP50 2.5 nM, 300 nM AcH4-23, 1 μM 3H-SAM
Method: Biochemical Assay Protocol
Compounds were solubilized and 3-fold diluted in 100% DMSO. […] Standard reactions were performed in a total volume of 30 μl in assay buffer, with 300 nM histone H4 based AcH4-23 (Anaspec: AS-65002) as substrate. To this was added the PRMT5/MEP50 complex diluted to provide a final assay concentration of 2.5 nM and the compounds were allowed to preincubate for 20 minutes at 37° C. The reaction was initiated by adding S-[3H-methyl]-adenosyl-L-methionine (PerkinElmer: NET155001MC) to final concentration of 1 μM. Following a 30 minutes incubation at 37° C., the reaction was stopped by adding 25 μL of 8M Guanidine HCl. Prepare streptavidin YSI SPA beads (Perkinelmer: RPNQ0012) at 0.3 mg/mL in assay buffer. To each reaction, add 150 μL of SPA beads suspension, and incubated while shaking at room temperature for 30 minutes. The plate was centrifuged at 100×g for 30 second before reading in a scintillation counter. IC50 values were determined by fitting the data to the standard 4 parameters with Hill Slope using GraphPad Prism software.

Sequence of PRMT5/MEP50 complex (O14744 whole entry): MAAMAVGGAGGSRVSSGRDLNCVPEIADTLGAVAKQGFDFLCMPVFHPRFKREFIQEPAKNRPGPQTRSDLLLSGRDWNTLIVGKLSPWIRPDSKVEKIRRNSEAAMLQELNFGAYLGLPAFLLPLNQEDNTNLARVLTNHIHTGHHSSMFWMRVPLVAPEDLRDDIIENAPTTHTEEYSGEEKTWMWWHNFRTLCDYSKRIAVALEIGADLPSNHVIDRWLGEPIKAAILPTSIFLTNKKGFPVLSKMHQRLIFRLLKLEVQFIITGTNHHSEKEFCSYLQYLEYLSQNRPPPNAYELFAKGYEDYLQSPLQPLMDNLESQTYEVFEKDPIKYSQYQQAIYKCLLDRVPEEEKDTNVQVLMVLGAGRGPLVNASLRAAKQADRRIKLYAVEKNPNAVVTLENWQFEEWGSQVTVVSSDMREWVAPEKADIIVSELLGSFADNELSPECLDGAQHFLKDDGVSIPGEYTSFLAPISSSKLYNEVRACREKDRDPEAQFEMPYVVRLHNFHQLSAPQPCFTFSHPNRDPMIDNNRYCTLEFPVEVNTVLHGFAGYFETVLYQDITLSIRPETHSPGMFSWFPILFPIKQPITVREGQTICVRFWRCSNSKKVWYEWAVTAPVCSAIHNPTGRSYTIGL
Sequence of PRMT5/MEP50 complex (Q9BQA1 whole entry partner): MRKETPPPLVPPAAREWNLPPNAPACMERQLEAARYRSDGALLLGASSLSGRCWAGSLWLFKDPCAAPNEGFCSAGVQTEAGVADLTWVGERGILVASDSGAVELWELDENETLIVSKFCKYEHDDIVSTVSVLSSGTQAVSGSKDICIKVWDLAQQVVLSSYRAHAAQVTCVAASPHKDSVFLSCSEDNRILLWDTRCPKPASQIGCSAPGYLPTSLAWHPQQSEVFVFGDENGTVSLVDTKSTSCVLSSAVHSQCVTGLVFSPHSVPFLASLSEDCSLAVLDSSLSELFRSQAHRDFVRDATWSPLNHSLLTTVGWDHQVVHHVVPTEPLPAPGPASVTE

SMILES: Cc1ncnc2c1ccn2[C@@H]1O[C@H]([C@@H]2OCCc3c2ccc(F)c3F)[C@@H](O)[C@H]1O [Example 79, (2S,3S,4R,5R)-2-((R)-5,6-difluoroisochroman-1-yl)-5-(4-methyl-7H-pyrrolo[2,3-d]pyrimidin-7-yl)tetrahydrofuran-3,4-diol]
- IC50: 8.4 nM

SMILES: Nc1ncnc2c1ccn2[C@@H]1O[C@H]([C@@H]2OCC(F)(F)c3ccccc32)[C@@H](O)[C@H]1O [Example 78, (2R,3R,4S,5S)-2-(4-amino-7H-pyrrolo[2,3-d]pyrimidin-7-yl)-5-((R)-4,4-difluoroisochroman-1-yl)tetrahydrofuran-3,4-diol]
- IC50: 6.7 nM

SMILES: Cc1ncnc2c1ccn2[C@@H]1O[C@H]([C@@H]2OCC(F)(F)c3ccccc32)[C@@H](O)[C@H]1O [Example 76, (2S,3S,4R,5R)-2-((R)-4,4-difluoroisochroman-1-yl)-5-(4-methyl-7H-pyrrolo[2,3-d]pyrimidin-7-yl)tetrahydrofuran-3,4-diol]
- IC50: 81 nM

SMILES: Nc1ncnc2c1ccn2[C@@H]1C[C@H]([C@H]2OCc3cc(Cl)ccc32)[C@@H](O)[C@H]1O [Example 2A, (1R,2S,3R,5S)-3-(4-amino-7H-pyrrolo[2,3-d]pyrimidin-7-yl)-5-((R)-5-chloro-1,3-dihydroisobenzofuran-1-yl)cyclopentane-1,2-diol]
- IC50: 680 nM

SMILES: Nc1ncnc2c1ccn2[C@@H]1O[C@H]([C@@H]2OC(=O)Cc3cc(Cl)ccc32)[C@@H](O)[C@H]1O [Example 82, (R)-1-((2S,3S,4R,5R)-5-(4-amino-7H-pyrrolo[2,3-d]pyrimidin-7-yl)-3,4-dihydroxytetrahydrofuran-2-yl)-6-chloroisochroman-3-one]
- IC50: 585 nM

SMILES: Nc1ncnc2c1ccn2[C@@H]1O[C@H]([C@@H]2OCCc3c2ccc(F)c3F)[C@@H](O)[C@H]1O [Example 77, (2R,3R,4S,5S)-2-(4-amino-7H-pyrrolo[2,3-d]pyrimidin-7-yl)-5-((R)-5,6-difluoroisochroman-1-yl)tetrahydrofuran-3,4-diol]
- IC50: 2.82 nM

SMILES: Nc1ncnc2c1ccn2[C@@H]1O[C@H]([C@H]2OCc3cc(Cl)ccc32)[C@@H](O)[C@H]1O [Example 1B, (2R,3R,4S,5S)-2-(4-amino-7H-pyrrolo[2,3-d]pyrimidin-7-yl)-5-((S)-5-chloro-1,3-dihydroisobenzofuran-1-yl)tetrahydrofuran-3,4-diol]
- IC50: 270 nM

SMILES: Cc1cc2c(cc1Cl)CCO[C@H]2[C@H]1O[C@@H](n2ccc3c(C)ncnc32)[C@H](O)[C@@H]1O [Example 99, (2S,3S,4R,5R)-2-((R)-6-chloro-7-methylisochroman-1-yl)-5-(4-methyl-7H-pyrrolo[2,3-d]pyrimidin-7-yl)tetrahydrofuran-3,4-diol]
- IC50: 39.6 nM

SMILES: Cc1ncnc2c1ccn2[C@@H]1O[C@H]([C@@H]2OCc3ccc(Cl)cc32)[C@@H](O)[C@H]1O [Example 15, (2S,3S,4R,5R)-2-((R)-6-chloro-1,3-dihydroisobenzofuran-1-yl)-5-(4-methyl-7H-pyrrolo[2,3-d]pyrimidin-7-yl)tetrahydrofuran-3,4-diol]
- IC50: 1 nM

SMILES: Nc1ncnc2c1ccn2[C@@H]1O[C@H]([C@@H]2OCCCc3cc(Cl)ccc32)[C@@H](O)[C@H]1O [Example 102, (2R,3R,4S,5S)-2-(4-amino-6H-7I4-pyrrolo[2,3-d]pyrimidin-7-yl)-5-((R)-7-chloro-1,3,4,5-tetrahydrobenzo[c]oxepin-1-yl)tetrahydrofuran-3,4-diol, hydrochloride]
- IC50: 6280 nM

SMILES: Cc1ncnc2c1ccn2[C@@H]1O[C@H]([C@H]2OCCc3cc(Cl)ccc32)[C@@H](O)[C@H]1O [Example 80, (2S,3S,4R,5R)-2-((S)-6-chloroisochroman-1-yl)-5-(4-methyl-7H-pyrrolo[2,3-d]pyrimidin-7-yl)tetrahydrofuran-3,4-diol]
- IC50: 1010 nM

SMILES: Nc1ncnc2c1ccn2[C@@H]1C[C@H]([C@H]2OC(=O)c3cc(Cl)ccc32)[C@@H](O)[C@H]1O [Example 3B, (R)-3-((1S,2R,3S,4R)-4-(4-amino-6H-7I4-pyrrolo[2,3-d]pyrimidin-7-yl)-2,3-dihydroxycyclopentyl)-6-chloroisobenzofuran-1(3H)-one, hydrochloride]
- IC50: 1020 nM

SMILES: COC1Cc2cc(Cl)ccc2[C@H]([C@H]2O[C@@H](n3ccc4c(C)ncnc43)[C@H](O)[C@@H]2O)O1 (stereo partly drawn) [Example 44, (2S,3S,4R,5R)-2-((1R)-6-chloro-3-methoxyisochroman-1-yl)-5-(4-methyl-7H-pyrrolo[2,3-d]pyrimidin-7-yl)tetrahydrofuran-3,4-diol]
- IC50: 606 nM

SMILES: Cc1cc2c(cc1Cl)CCO[C@H]2[C@H]1O[C@@H](n2ccc3c(N)ncnc32)[C@H](O)[C@@H]1O [Example 100, (2R,3R,4S,5S)-2-(4-amino-7H-pyrrolo[2,3-d]pyrimidin-7-yl)-5-((R)-6-chloro-7-methylisochroman-1-yl)tetrahydrofuran-3,4-diol]
- IC50: 5.6 nM

SMILES: Nc1ncnc2c1ccn2[C@@H]1O[C@H]([C@H]2OCCc3cc(Cl)sc32)[C@@H](O)[C@H]1O [Example 91, (2R,3R,4S,5S)-2-(4-amino-7H-pyrrolo[2,3-d]pyrimidin-7-yl)-5-((R)-2-chloro-4,7-dihydro-5H-thieno[2,3-c]pyran-7-yl)tetrahydrofuran-3,4-diol]
- IC50: 554 nM

SMILES: Nc1ncnc2c1ccn2[C@@H]1O[C@H]([C@@H]2OC[C@@H](F)c3cc(Cl)ccc32)[C@@H](O)[C@H]1O [Example 93, (2R,3R,4S,5S)-2-(4-aminopyrrolo[2,3-d]pyrimidin-7-yl)-5-[(1R,4S)-6-chloro-4-fluoro-isochroman-1-yl]tetrahydrofuran-3,4-diol]
- IC50: 14 nM

SMILES: Cc1ncnc2c1ccn2[C@@H]1O[C@H]([C@@H]2OCCCc3cc(Cl)ccc32)[C@@H](O)[C@H]1O [Example 101, (2S,3S,4R,5R)-2-((R)-7-chloro-1,3,4,5-tetrahydrobenzo[c]oxepin-1-yl)-5-(4-methyl-7H-pyrrolo[2,3-d]pyrimidin-7-yl)tetrahydrofuran-3,4-diol]
- IC50: 1580 nM

SMILES: Nc1ncnc2c1ccn2[C@@H]1O[C@H]([C@@H]2OC(O)Cc3cc(Cl)ccc32)[C@@H](O)[C@H]1O (stereo partly drawn) [Example 43, (2R,3R,4S,5S)-2-(4-amino-7H-pyrrolo[2,3-d]pyrimidin-7-yl)-5-((1R)-6-chloro-3-hydroxyisochroman-1-yl)tetrahydrofuran-3,4-diol]
- IC50: 19 nM

SMILES: Nc1ncnc2c1ccn2[C@@H]1O[C@H]([C@@H]2OCOCc3cc(Cl)ccc32)[C@@H](O)[C@H]1O [Example 81, (2R,3R,4S,5S)-2-(4-amino-7H-pyrrolo[2,3-d]pyrimidin-7-yl)-5-((R)-7-chloro-1,5-dihydrobenzo[e][1,3]dioxepin-1-yl)tetrahydrofuran-3,4-diol]
- IC50: 41.5 nM

SMILES: COC1Cc2cc(Cl)ccc2[C@H]([C@H]2O[C@@H](n3ccc4c(N)ncnc43)[C@H](O)[C@@H]2O)O1 (stereo partly drawn) [Example 42, (2R,3R,4S,5S)-2-(4-amino-7H-pyrrolo[2,3-d]pyrimidin-7-yl)-5-((1R)-6-chloro-3-methoxyisochroman-1-yl)tetrahydrofuran-3,4-diol]
- IC50: 428 nM

SMILES: Cc1ncnc2c1ccn2[C@@H]1O[C@H]([C@@H]2OC[C@H](F)c3cc(Cl)ccc32)[C@@H](O)[C@H]1O [Example 94, (2R,3R,4S,5S)-2-(4-methylpyrrolo[2,3-d]pyrimidin-7-yl)-5-[(1R,4R)-6-chloro-4-fluoro-isochroman-1-yl]tetrahydrofuran-3,4-diol]
- IC50: 3.2 nM

SMILES: Cc1ncnc2c1ccn2[C@@H]1O[C@H]([C@@H]2OC(O)Cc3cc(Cl)ccc32)[C@@H](O)[C@H]1O (stereo partly drawn) [Example 50, (2S,3S,4R,5R)-2-((1R)-6-chloro-3-hydroxyisochroman-1-yl)-5-(4-methyl-7H-pyrrolo[2,3-d]pyrimidin-7-yl)tetrahydrofuran-3,4-diol]
- IC50: 59 nM

SMILES: Cc1ncnc2c1ccn2[C@@H]1O[C@H]([C@@H]2OC[C@@H](F)c3cc(Cl)ccc32)[C@@H](O)[C@H]1O [Example 92, (2S,3S,4R,5R)-2-((1R,4S)-6-chloro-4-fluoroisochroman-1-yl)-5-(4-methyl-7H-pyrrolo[2,3-d]pyrimidin-7-yl)tetrahydrofuran-3,4-diol]
- IC50: 20 nM
